Laboratory results as given in patent US10030016B2 (Sunesis Pharmaceuticals, Inc., priority 2009, dated 2018).
Counter-ions that a name gives are not always drawn. Like-named read-outs stand apart in the source and are kept apart here.

Legend:
PDK1 = PDK1 (Homo sapiens (Human), UniProt O15530); test: PDK1 kinase assay (coupled PDK1/AKT/FAM-crosstide assay, IMAP fluorescence polarization); assay type: biochemical; conditions: inhibition of phospo-PDK1 in vitro
Procedure, shortened: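 Inhibition is derived by 4-parameter fitting of ΔmP from an IMAP fluorescence polarization read of FAM-crosstide (100 nM) phosphorylation. The cascade ran 30 min at 25 °C with 40 μM ATP, using insect-cell GST-PDK1 51-359 (0.75 nM) driving 10 nM unphosphorylated AKT2 140-467-PIFtide fusion.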

[1] = tested on: phospho-akt (Thr308) in PC-3 cells; test: Inhibition of phospho-akt (Thr308) in PC-3 cells, MSD phospho-akt 308 ELISA kit; assay type: cell-based; conditions: inhibition of P308 Akt in PC-3 cells, 2 hours, no serum, MSD, read-out: EC50
Procedure, shortened: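 Phospho-Akt (Thr308) levels were measured by MSD ELISA after PC-3 cells received compound for 2 hours in serum-free medium. Controls: DMSO (high), 5 μM wortmannin (low).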

PDK1, sequence (O15530 51-359): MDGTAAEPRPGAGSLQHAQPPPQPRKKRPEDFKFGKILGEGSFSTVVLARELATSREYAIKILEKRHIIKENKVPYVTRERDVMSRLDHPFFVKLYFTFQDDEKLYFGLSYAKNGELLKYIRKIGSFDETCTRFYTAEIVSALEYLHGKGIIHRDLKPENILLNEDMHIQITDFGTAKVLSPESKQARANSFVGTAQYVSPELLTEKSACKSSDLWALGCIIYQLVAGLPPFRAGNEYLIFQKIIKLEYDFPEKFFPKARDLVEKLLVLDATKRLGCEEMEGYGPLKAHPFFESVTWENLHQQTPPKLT

SMILES | IC50 (PDK1) [nM] | EC50 ([1]; Homo sapiens) [nM] | EC50 [1] [nM]
C[C@H](NC(=O)c1cccnc1NCc1ccc(-c2ccc3ncc4[nH]c(=O)n(C)c4c3c2)s1)c1ccc(F)cc1 [Example 2.16, (S)-N-(1-(4-fluorophenyl)ethyl)-2-(((5-(1-methyl-2-oxo-2,3-dihydro-1H-imidazo[4,5-c]quinolin-8-yl)thiophen-2-yl)methyl)amino) nicotinamide] | > 5000 | > 10000 | 
Cc1nc2cnc3ccc(-c4ccc(CNc5ncccc5C(=O)N[C@@H](C)c5ccc(F)cc5)s4)cc3c2n1C [Example 2.19, (S)-2-(((5-(1,2-dimethyl-1H-imidazo[4,5-c]quinolin-8-yl)thiophen-2-yl)methyl)amino) N-(1-(4-fluorophenyl)ethyl) nicotinamide] | 100 to 1000 | < 1000 | 
C[C@H](NC(=O)c1cccnc1NCc1ccc(-c2ccc3nc(N)[nH]c3c2)s1)c1ccc(F)cc1 [Example 2.21, (S)-2-(((5-(2-amino-1H-benzo[d]imidazol-6-yl)thiophen-2-yl)methyl)amino)-N-(1-(4-fluorophenyl)ethyl)nicotinamide] | 1000 to 5000 | > 10000 | 
Cn1cnc2cnc3ccc(-c4ccc(CNc5ncccc5C(=O)NCc5ccc(F)c(F)c5)s4)cc3c21 [Example 2.24] | < 100 | < 1000 | 
C[C@H](NC(=O)c1cccnc1NCc1ccc(-c2ccc3ncc4ncn(C)c4c3c2)s1)c1ccc(F)c(F)c1 [Example 2.25, (S)-N-(1-(3,4-difluorophenyl)ethyl)-2-(((5-(1-methyl-1H-imidazo[4,5-c]quinolin-8-yl)thiophen-2-yl)methyl)amino)nicotinamide] | < 100 | < 1000 | 
C[C@H](NC(=O)c1cc(C(F)(F)F)cnc1NCc1ccc(-c2ccc3ncc4ncn(C)c4c3c2)s1)c1ccc(F)c(F)c1 [Example 2.27, (S)-5-trifluoromethyl-N-(1-(3,4-difluorophenyl)ethyl)-2-(((5-(1-methyl-1H-imidazo[4,5-c]quinolin-8-yl)thiophen-2-yl)methyl)amino)nicotinamide] | < 100 | < 1000 | 
C[C@H](NC(=O)c1cccnc1NCc1cccc(-c2c[nH]c3ncnc(N)c23)c1)c1ccc(F)c(F)c1 [Example 2.30, (S)-2-(3-(4-amino-7H-pyrrolo[2,3-d]pyrimidin-5-yl)benzylamino)-N-(1-(3,4-difluorophenyl)ethyl) nicotinamide] | < 100 | 1000 to 10000 | 
O=C(NCc1ccc(F)c(F)c1)c1cccnc1NCc1ccc(-c2cnc3[nH]ccc3c2)s1 [Example 2.31, 2-(((5-(1H-pyrrolo[2,3-b]pyridin-5-yl)thiophen-2-yl)methyl)amino)-N-(3,4-difluorobenzyl) nicotinamide] | 100 to 1000 |  | 1000 to 10000
O=C(NCc1ccc(F)c(F)c1)c1cccnc1NCc1ccc(-c2cnc3[nH]ncc3c2)s1 [Example 2.32, 2-(((5-(1H-pyrazolo[3,4-b]pyridin-5-yl)thiophen-2-yl)methyl)amino)-N-(3,4-difluorobenzyl) nicotinamide] | < 100 | 1000 to 10000 | 
Cn1ccc(Nc2ncnc3ccc(-c4ccc(CNc5ncccc5C(=O)NCc5ccc(F)c(F)c5)s4)cc23)n1 [Example 2.34, N-(3,4-difluorobenzyl)-2-(((5-(4-(1-methyl-1H-pyrazol-3-ylamino)quinazolin-6-yl)thiophen-2-yl)methyl)amino) nicotinamide] | > 5000 | > 10000 | 
O=C(NCc1ccc(F)c(F)c1)c1cccnc1NCc1ccc(-c2cnc3[nH]ncc3c2)cc1 [Example 2.35, 2-(4-(1H-pyrazolo[3,4-b]pyridin-5-yl)benzylamino)-N-(3,4-difluorobenzyl)nicotinamide] | < 100 | < 1000 | 
C[C@H](NC(=O)c1cccnc1NCc1ccc(-c2cnc3[nH]ncc3c2)cc1)c1ccc(F)c(F)c1 [Example 2.39, N-[(S)-1-(3,4-Difluoro-phenyl)-ethyl]-2-[4-(1H-pyrazolo[3,4-b]pyridin-5-yl)benzyl-amino]-nicotinamide] | < 100 | < 1000 | 
Nc1ncnc2ccc(-c3ccc(CNc4ncccc4C(=O)NCc4ccc(F)cc4F)s3)cc12 [Example 3.8, 2-({[5-(4-aminoquinazolin-6-yl)thiophen-2-yl]methyl}amino)-N-(2,4-difluorobenzyl)pyridine-3-carboxamide (TFA salt)] | < 100 | 1000 to 10000 | 
Nc1ncnc2ccc(-c3ccc(CNc4ncccc4C(=O)NCc4cccc(F)c4F)s3)cc12 [Example 3.10, 2-({[5-(4-aminoquinazolin-6-yl)thiophen-2-yl]methyl}amino)-N-(2,3-difluorobenzyl)pyridine-3-carboxamide (TFA salt)] | 100 to 1000 | 1000 to 10000 | 

Other lines, results leading:

IC50 (PDK1) [nM] | EC50 ([1]; Homo sapiens) [nM] | EC50 [1] [nM] | SMILES
> 5000 | > 10000 |  | C[C@H](NC(=O)c1cccnc1NCc1ccc(-c2ccc3ncc4c(c3c2)n(C)c(=O)n4C)s1)c1ccc(F)cc1 [Example 2.17, (S)-2-(((5-(1,3-dimethyl-2-oxo-2,3-dihydro-1H-imidazo(4,5-c]quinolin-8-yl)thiophen-2-yl)methyl)amino)-N-(1-(4-fluoro-phenyl)ethyl)nicotinamide]
100 to 1000 | < 1000 |  | C[C@H](NC(=O)c1cccnc1NCc1ccc(-c2ccc3ncc4ncn(C)c4c3c2)s1)c1ccc(F)cc1 [Example 2.18]
100 to 1000 | < 1000 |  | C[C@H](NC(=O)c1cccnc1NCc1ccc(-c2c[nH]c3ncnc(N)c23)s1)c1ccc(F)cc1 [Example 2.20, (S)-2-(((5-(4-amino-7H-pyrrolo[2,3-d]pyrimidin-5-yl)thiophen-2-yl)methyl)amino)-N-(1-(4-fluorophenyl)ethyl)nicotinamide]
1000 to 5000 | > 10000 |  | C[C@H](NC(=O)c1cccnc1NCc1ccc(-c2cc3c(cn2)nc(N)n3C)s1)c1ccc(F)cc1 [Example 2.23, (S)-2-(((5-(2-amino-1-methyl-1H-imidazo[4,5-c]pyridin-6-yl)thiophen-2-yl)methyl)amino)-N-(1-(4-fluorophenyl)ethyl) nicotinamide]
< 100 | < 1000 |  | Cn1cnc2cnc3ccc(-c4ccc(CNc5ncc(C(F)(F)F)cc5C(=O)NCc5ccc(F)c(F)c5)s4)cc3c21 [Example 2.26, N-(3,4-difluorobenzyl)-2-(((5-(1-methyl-1H-imidazo[4,5-c]quinolin-8-yl)thiophen-2-yl)methyl)amino)-5-(trifluoromethyl)nicotinamide]
< 100 | < 1000 |  | C[C@H](NC(=O)c1cc(C#N)cnc1NCc1ccc(-c2ccc3ncc4ncn(C)c4c3c2)s1)c1ccc(F)cc1 [Example 2.28, (S)-5-cyano-N-(1-(4-fluorophenyl)ethyl)-2-(((5-(1-methyl-1H-imidazo[4,5-c]quinolin-8-yl)thiophen-2-yl)methyl)amino) nicotinamide]
< 100 |  | 1000 to 10000 | C[C@H](NC(=O)c1cccnc1NCc1cccc(-c2c[nH]c3ncnc(N)c23)c1)c1ccc(F)cc1 [Example 2.29, (S)-2-(3-(4-amino-7H-pyrrolo[2,3-d]pyrimidin-5-yl)benzylamino)-N-(1-(4-fluorophenyl)ethyl) nicotinamide]
< 100 |  | < 1000 | C[C@H](NC(=O)c1cc(C#N)cnc1NCc1ccc(-c2cnc3[nH]ncc3c2)cc1)c1ccc(F)cc1 [Example 2.36, 5-Cyano-N-[(S)-1-(4-fluoro-phenyl)-ethyl]-2-[4-(1H-pyrazolo[3,4-]pyridin-5-yl)-benzylamino]-nicotinamide]
< 100 | < 1000 |  | O=C(NCc1ccc(F)c(F)c1)c1cc(C(F)(F)F)cnc1NCc1ccc(-c2cnc3[nH]ncc3c2)cc1 [Example 2.37]
< 100 | 1000 to 10000 |  | C[C@H](NC(=O)c1cccnc1NCc1ccc(-c2cn(C)c3ncnc(N)c23)cc1)c1ccc(F)c(F)c1 [Example 2.38, 2-[4-(4-Amino-7-methyl-7H-pyrrolo[2,3-d]pyrimidin-5-yl)-benzylamino]-N-[(S)-1-(3,4-difluoro-phenyl)-ethyl]-nicotinamide]
100 to 1000 | > 10000 |  | Nc1ncnc2ccc(-c3ccc(CNc4ncccc4C(=O)NCc4cc(F)ccc4F)s3)cc12 [Example 3.6, 2-({[5-(4-aminoquinazolin-6-yl)thiophen-2-yl]methyl}amino)-N-(2,5-difluorobenzyl)pyridine-3-carboxamide]
< 100 | < 1000 |  | Nc1ncnc2ccc(-c3ccc(CNc4ncccc4C(=O)NCc4ccc(F)cc4)s3)cc12 [Example 3.7, 2-({[5-(4-aminoquinazolin-6-yl)thiophen-2-yl]methyl}amino)-N-(4-fluorobenzyl)pyridine-3-carboxamide (TFA salt)]
< 100 | < 1000 |  | Nc1ncnc2ccc(-c3ccc(CNc4ncccc4C(=O)NCc4cccc(F)c4)s3)cc12 [Example 3.9, 2-({[5-(4-aminoquinazolin-6-yl)thiophen-2-yl]methyl}amino)-N-(3-fluorobenzyl)pyridine-3-carboxamide (TFA salt)]
< 100 | > 10000 |  | Nc1ncnc2ccc(-c3ccc(CNc4ncccc4C(=O)NCc4cc(F)c(F)cc4F)s3)cc12 [Example 3.11, 2-({[5-(4-aminoquinazolin-6-yl)thiophen-2-yl]methyl}amino)-N-(2,4,5-trifluorobenzyl)pyridine-3-carboxamide (TFA salt)]
> 5000 | > 10000 |  | Nc1ncnc2ccc(-c3ccc(CNc4ncccc4C(=O)NCc4cc(F)ccc4C(F)(F)F)s3)cc12 [Example 3.12, 2-({[5-(4-aminoquinazolin-6-yl)thiophen-2-yl]methyl}amino)-N-[5-fluoro-2-(trifluoromethyl)benzyl]pyridine-3-carboxamide (TFA salt)]
